# Measured values: patent publication US20050261288A1, “Tetracyclic lactam derivatives and uses thereof” (priority 2004, published 2005)
# Biological target: T1, PARP (Mus musculus, UniProt P11103)
# T1 construct: endogenous in cells; host or cells: RAW mouse macrophages
# Test: PARP activation in cultured murine macrophages, whole-cell macrophage assay (peroxynitrite-induced)
# Format: cell-based
# Conditions: for IC50: PARP activation in cultured murine macrophages
# Protocol: Without being bound by theory, Applicants believe that Tetracyclic Lactam Derivatives that inhibit PARP are useful for treating or preventing a Condition.
# In a typical procedure, RAW mouse macrophages are cultured in DMEM medium with high glucose and supplemented with 10% fetal bovine serum. Cells are used at 80% confluence in 12-well plates. Cells are pretreated with various concentrations (100 nM-1 μM) of a Tetracyclic Lactam Derivative for 10 min. Peroxynitrite, a prototypical oxidant which induces DNA single strand breakage, is used to induce PARP activation. In a typical assay, peroxynitrite is diluted in phosphate buffered saline (PBS) (pH 11.0) and added to the cells in a bolus of 50 μL. Cells are then incubated for 20 minutes. Peroxynitrite is decomposed by incubation for 30 min at pH 7.0, and used as a control. After the 20 minute incubation period, the cells are spun, the medium is aspirated and the cells are resuspended in 0.5 mL assay buffer (56 mM HEPES pH 7:5, 28 mM KCl, 28 mM NaCl, 2 mM MgCl2, 0.01% w/v digitonin and 0.125 μM NAD^+ and 0.5 μCi/ml ^3H-NAD^+). Following incubation in assay buffer, (10 min at 37° C.), PARP activity can be measured as follows: 200 μL ice cold 50% w/v TCA is added and the samples are incubated for 4 h at 4° C. Samples are then spun (10 min @ 10,000 g) and the resulting pellets are washed twice with ice cold 5% w/v TCA and solubilized overnight in 250 μL 2% w/v SDS/0.1 N NaOH at 37° C. The contents of the tubes are added to 6.5 mL ScintiSafe Plus scintillation liquid (Fisher Scientific) and radioactivity is determined using a liquid scintillation counter (Wallac, Gaithersburg, Md.).
# Examples of the inhibitory effects of illustrative Tetracyclic Lactam Derivatives in the whole-cell macrophage assay are illustrated in Tables 3 and 4 below.
# T1 sequence (P11103 whole entry): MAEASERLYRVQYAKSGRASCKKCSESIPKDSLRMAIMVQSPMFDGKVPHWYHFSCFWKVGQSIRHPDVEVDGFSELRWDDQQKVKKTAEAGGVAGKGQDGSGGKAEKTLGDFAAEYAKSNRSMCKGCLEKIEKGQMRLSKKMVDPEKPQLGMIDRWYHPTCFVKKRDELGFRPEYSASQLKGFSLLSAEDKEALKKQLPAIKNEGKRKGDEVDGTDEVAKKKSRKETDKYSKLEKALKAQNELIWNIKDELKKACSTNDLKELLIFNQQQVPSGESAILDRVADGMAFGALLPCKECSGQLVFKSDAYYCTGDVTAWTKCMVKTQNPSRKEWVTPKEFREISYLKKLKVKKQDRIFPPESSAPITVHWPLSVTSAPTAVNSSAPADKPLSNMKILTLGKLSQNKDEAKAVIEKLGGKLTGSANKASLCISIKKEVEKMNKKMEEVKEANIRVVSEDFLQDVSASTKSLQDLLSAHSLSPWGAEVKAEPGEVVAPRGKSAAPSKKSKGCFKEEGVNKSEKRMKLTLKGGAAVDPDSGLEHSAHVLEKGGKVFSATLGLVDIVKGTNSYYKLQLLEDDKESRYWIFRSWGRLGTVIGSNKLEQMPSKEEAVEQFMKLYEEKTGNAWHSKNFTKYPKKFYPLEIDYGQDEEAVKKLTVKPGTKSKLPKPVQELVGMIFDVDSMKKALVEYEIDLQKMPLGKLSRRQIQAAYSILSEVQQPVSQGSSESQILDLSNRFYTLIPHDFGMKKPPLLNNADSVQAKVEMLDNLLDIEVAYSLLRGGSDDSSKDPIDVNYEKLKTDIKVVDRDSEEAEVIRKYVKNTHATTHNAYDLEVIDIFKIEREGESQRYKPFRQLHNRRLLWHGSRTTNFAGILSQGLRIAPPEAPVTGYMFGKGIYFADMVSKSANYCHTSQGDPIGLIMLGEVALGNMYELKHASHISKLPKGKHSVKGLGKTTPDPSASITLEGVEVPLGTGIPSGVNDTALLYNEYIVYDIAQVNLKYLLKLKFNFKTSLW
SMILES,IC50 [µM],"inhibition at 0.1 µM (0.1 μM, RAW mouse macrophages, peroxynitrite-induced PARP activation) [%]","inhibition at 0.3 µM (0.3 μM, RAW mouse macrophages, peroxynitrite-induced PARP activation) [%]","inhibition at 1 µM (1 μM, RAW mouse macrophages, peroxynitrite-induced PARP activation) [%]","inhibition at 3 µM (3 μM, RAW mouse macrophages, peroxynitrite-induced PARP activation) [%]"
"COC(=O)n1c2ccccc2c2[nH]c(=O)c3ccccc3c21 [Compound 61, METHYL-5-OXO-5,6-DIHYDRO-INDOLO[3,2-C]ISOQUINOLINE-11-CARBOXYLATE]",10 to 100,,,,
"CCOC(=O)n1c2ccccc2c2[nH]c(=O)c3ccccc3c21 [Compound 63, ETHYL-5-OXO-5,6-DIRYDRO-INDOLO[3,2-C]ISOQUINOLINE-11-CARBOXYLATE]",1 to 10,33,43,50,65

# Second part, the molecule after the results:
IC50 [µM],"inhibition at 0.1 µM (0.1 μM, RAW mouse macrophages, peroxynitrite-induced PARP activation) [%]","inhibition at 0.3 µM (0.3 μM, RAW mouse macrophages, peroxynitrite-induced PARP activation) [%]","inhibition at 1 µM (1 μM, RAW mouse macrophages, peroxynitrite-induced PARP activation) [%]","inhibition at 3 µM (3 μM, RAW mouse macrophages, peroxynitrite-induced PARP activation) [%]",SMILES
10 to 100,,,,,"CC(C)OC(=O)n1c2ccccc2c2[nH]c(=O)c3ccccc3c21 [Compound 108, ISO-PROPYL-5-OXO-5,6-DIHYDRO-INDOLO[3,2-C]ISOQUINOLINE-11-CARBOXYLATE]"
10 to 100,,,,,"CCCCOC(=O)n1c2ccccc2c2[nH]c(=O)c3ccccc3c21 [Compound 109, N-BUTYL-5-OXO-5,6-DIHYDRO-INDOLO[3,2-C]ISOQUINOLINE-11-CARBOXYLATE]"
10 to 100,,,,,"CCCOC(=O)n1c2ccccc2c2[nH]c(=O)c3ccccc3c21 [Compound 107, N-PROPYL-5-OXO-5,6-DIHYDRO-INDOLO[3,2-C]ISOQUINOLINE-11-CARBOXYLATE]"
